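Grown in 96-well plates, cells were treated for 48 hours with each compound at five concentrations. Insufficient inhibition: endpoint recorded as highest concentration tested. Definition used: TGI = concentration required for complete inhibition of growth.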 Where only a bound is given, the exact number is not on record here.

Some test systems named below: MCF7 breast; SNB-19 CNS; SR leukemia; MDA-MB-231 breast; 786-0 renal; A498 renal; SK-MEL-5 melanoma; SF-268 CNS; NCI/ADR-RES ovarian; DU-145 prostate; MDA-N.
Common to all, as to assay: DTP human tumour cell line panel, 48 h

As a reminder, the TGI is the concentration giving total growth inhibition. On to `CC(C)(C)OC(=O)CN1CCN(CC(=O)N2CCN(C(=O)OCc3ccccc3)CC2)CCN(CC(=O)OC(C)(C)C)CCN(CC(=O)N2CCN(C(=O)OCc3ccccc3)CC2)CC1`, for which the TGI with MCF7 breast was 14.9 µM; with SNB-19 CNS it was 14.6 µM; in the experiment on SR leukemia it was 1.75 µM; in the experiment on MDA-MB-231 breast it was 5.01 µM; with 786-0 renal, 7.42 µM; with A498 renal it was 35.7 µM. In addition, the TGI came to 3.92 µM in the experiment on SK-MEL-5 melanoma; 7.34 µM with SF-268 CNS; 34.4 µM in the experiment on NCI/ADR-RES ovarian; 20.1 µM in the experiment on DU-145 prostate; 7.65 µM with MDA-N.
For `COC(=O)/C=C\C(C#N)(C#N)N=Cc1sccc1C`, the TGI in the experiment with MCF7 breast is 3.13 µM; in the experiment on SNB-19 CNS, 33.8 µM; in the experiment with SR leukemia it was over 100 µM; in the experiment on MDA-MB-231 breast it was 1.93 µM; in the experiment on 786-0 renal, 4.34 µM; in the experiment on A498 renal, 27.9 µM. In addition, the TGI was 4.78 µM in the experiment with SK-MEL-5 melanoma; 26.1 µM in the experiment with SF-268 CNS; 32.7 µM in the experiment on NCI/ADR-RES ovarian; 13.4 µM in the experiment on DU-145 prostate; 15.1 µM in the experiment with MDA-N.
Regarding `COc1c2c(cc3c1C1(O)Cc4ccc5c(c4C[N+]1(C)CC3)OCO5)OCO2` (configuration not stated), the TGI in the experiment with MCF7 breast, in the experiment on SNB-19 CNS, in the experiment on SR leukemia, with MDA-MB-231 breast, in the experiment with 786-0 renal and with A498 renal was over 100 µM throughout. Also, the TGI with SK-MEL-5 melanoma, in the experiment with SF-268 CNS, in the experiment on NCI/ADR-RES ovarian, in the experiment on DU-145 prostate and in the experiment with MDA-N was over 100 µM each time.
Take `Nc1c2c(nc3ccccc13)-c1ccccc1NCCC2`: the TGI is over 100 µM in the experiment with MCF7 breast; over 100 µM with SNB-19 CNS; over 100 µM with SR leukemia; 53.5 µM in the experiment on MDA-MB-231 breast; 32.4 µM in the experiment on 786-0 renal; 55.5 µM with A498 renal. The TGI is 28.6 µM with SK-MEL-5 melanoma; over 100 µM in the experiment with SF-268 CNS; over 100 µM in the experiment with NCI/ADR-RES ovarian; over 100 µM in the experiment with DU-145 prostate; 39 µM in the experiment on MDA-N.
As for `CC[P+]1(c2ccccc2)[C@@H](C)CC[C@@H]1C`, the TGI in the experiment on MCF7 breast, with SNB-19 CNS, in the experiment on SR leukemia, in the experiment on MDA-MB-231 breast, in the experiment with 786-0 renal and with A498 renal was over 100 µM throughout. Besides, the TGI in the experiment with SK-MEL-5 melanoma, with SF-268 CNS, with NCI/ADR-RES ovarian, with DU-145 prostate and in the experiment with MDA-N was over 100 µM throughout.
Consider `COc1cc2ccc1OCc1cccc(n1)COc1ccc(cc1OC)C=NCCNCCNCCN=C2`, for which the TGI with MCF7 breast, with SNB-19 CNS, in the experiment on SR leukemia, in the experiment on MDA-MB-231 breast, in the experiment on 786-0 renal and in the experiment with A498 renal was over 100 µM in each case. Moreover, the TGI with SK-MEL-5 melanoma, in the experiment on SF-268 CNS, with NCI/ADR-RES ovarian, in the experiment with DU-145 prostate and with MDA-N was over 100 µM each time.
In the case of `NC(=Nc1cccc(Cl)c1)c1ccccc1N`, the TGI in the experiment on MCF7 breast, in the experiment on SNB-19 CNS, in the experiment with SR leukemia, in the experiment on MDA-MB-231 breast, in the experiment with 786-0 renal and in the experiment with A498 renal was over 100 µM in each case. The TGI with SK-MEL-5 melanoma, with SF-268 CNS, with NCI/ADR-RES ovarian, in the experiment on DU-145 prostate and in the experiment with MDA-N was over 100 µM each time.
For `CCOC(=O)c1cc(C2CCN(c3ccccc3)C2=O)c(C(=O)/C=C(/C)N)[nH]1` (configuration not stated), the TGI was over 100 µM in the experiment with MCF7 breast; 52.4 µM in the experiment on SNB-19 CNS; over 100 µM in the experiment on SR leukemia; over 100 µM in the experiment with MDA-MB-231 breast; 21.8 µM in the experiment with 786-0 renal; over 100 µM with A498 renal. The TGI in the experiment with SK-MEL-5 melanoma, in the experiment with SF-268 CNS, in the experiment on NCI/ADR-RES ovarian, with DU-145 prostate and with MDA-N was over 100 µM each time.
For the molecule `CCN(CC)CCCNc1[nH]ncc2c(C)c3nc4ccc(OC)cc4c3cc12`, the TGI in the experiment with MCF7 breast came to 1.28 µM; in the experiment with SNB-19 CNS, 1.21 µM; in the experiment with SR leukemia it was 1.76 µM; in the experiment with MDA-MB-231 breast it was 2.65 µM; in the experiment on 786-0 renal, 2.28 µM; in the experiment with A498 renal, 6.35 µM. Moreover, the TGI in the experiment on SK-MEL-5 melanoma was 2.83 µM; in the experiment with SF-268 CNS it was 3.52 µM; in the experiment on NCI/ADR-RES ovarian, over 100 µM; in the experiment with DU-145 prostate, 8.24 µM; with MDA-N, 1.93 µM.
Take `Cc1c(N2C(=O)/C(=C/c3ccc(N(CCC#N)CCC#N)cc3)N=C2c2ccccc2)c(=O)n(-c2ccccc2)n1C`: the TGI with MCF7 breast, in the experiment on SNB-19 CNS, with SR leukemia, in the experiment with MDA-MB-231 breast, in the experiment with 786-0 renal and in the experiment on A498 renal was over 100 µM each time. Also, the TGI with SK-MEL-5 melanoma, in the experiment on SF-268 CNS, in the experiment with NCI/ADR-RES ovarian, in the experiment with DU-145 prostate and in the experiment on MDA-N was over 100 µM throughout.
On to `NC(Cc1ncccn1)C(=O)O` (configuration not stated), for which the TGI in the experiment on MCF7 breast, with SNB-19 CNS, in the experiment with SR leukemia, in the experiment on MDA-MB-231 breast, in the experiment with 786-0 renal and in the experiment with A498 renal was over 100 µM each time. In addition, the TGI with SK-MEL-5 melanoma, in the experiment with SF-268 CNS, in the experiment on NCI/ADR-RES ovarian, with DU-145 prostate and in the experiment with MDA-N was over 100 µM throughout.
Turning to `O=S(=O)(/N=C(\NO)Nc1ccc(Cl)cc1)c1ccccc1`, the TGI in the experiment on MCF7 breast is over 100 µM; in the experiment on SNB-19 CNS, over 89.3 µM; in the experiment with SR leukemia, 9.91 µM; in the experiment on MDA-MB-231 breast it was over 100 µM; in the experiment with 786-0 renal it was 16.9 µM; with A498 renal, 27.3 µM. For the same molecule, the TGI with SK-MEL-5 melanoma was 21.8 µM; in the experiment on SF-268 CNS, over 70.3 µM; in the experiment with NCI/ADR-RES ovarian, 60.3 µM; with DU-145 prostate, over 60.3 µM; in the experiment on MDA-N, 27.7 µM.

(Values after PubChem BioAssay (NCI).)
